This passage reports remaining activity results from publication PMC4579270, “Identification and Characterization of an Irreversible Inhibitor of CDK2” (Chemistry & Biology, 2015).

For orientation: remaining activity means the activity still measured, relative to the control.

Holding throughout (experiment): Dundee kinase screen re-test (standard format and 4 hour pre-incubation)
Format in all cases: biochemical

Test [1] addresses T1, CHK1 (Homo sapiens, UniProt O14757).
T1 sequence (O14757 1-476): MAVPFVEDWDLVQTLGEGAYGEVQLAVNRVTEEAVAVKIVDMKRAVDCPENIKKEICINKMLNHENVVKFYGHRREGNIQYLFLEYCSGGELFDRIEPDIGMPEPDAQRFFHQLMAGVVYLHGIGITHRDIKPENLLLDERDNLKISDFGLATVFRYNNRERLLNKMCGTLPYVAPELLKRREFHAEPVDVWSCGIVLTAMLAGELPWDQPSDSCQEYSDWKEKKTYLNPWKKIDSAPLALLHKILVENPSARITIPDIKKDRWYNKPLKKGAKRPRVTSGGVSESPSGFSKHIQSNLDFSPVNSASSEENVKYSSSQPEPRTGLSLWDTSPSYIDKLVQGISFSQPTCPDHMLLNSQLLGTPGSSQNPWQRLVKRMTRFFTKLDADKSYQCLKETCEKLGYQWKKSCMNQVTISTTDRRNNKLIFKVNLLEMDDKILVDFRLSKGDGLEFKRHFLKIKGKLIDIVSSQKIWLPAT
Conditions: CHK1, 0.5µM. As to the method:
(§1) Prior to determining its cellular activity, we carried out a screen to assess its selectivity against a panel of 131 protein kinases under conditions that would not distinguish between a reversible or irreversible mode of action. […] These 13 kinases and 29 additional kinases, selected for their known sensitivity to other inhibitors within the purine series, were then tested in a modified screening format in which the assay was repeated following a 4-hr pre-incubation (Table S3B). […] However, conformational flexibility around the active site may promote such an interaction with a residue from another part of the structure ([Martin et al., 2012]).
(§2) Table S3, Related to Figure 4. NCL-0006300 protein kinase selectivity. […]
(§3) Dundee protein kinase screen (Bain et al., 2007). […]
(§4) (B) Selected kinases were re-tested in the Dundee kinase screen against NU6300 at a single concentration of 0.5 µM both in the standard assay format and following a 4 hour pre-incubation in the presence of NU6300. Kinases which have very low activity after the 4 hour incubation so that results might not be wholly reliable are boxed in salmon. Kinases where the activity after a 4 hour pre-incubation is < 50% that in the standard assay format are highlighted in red.

Test [2] addresses MLK1 (Homo sapiens, UniProt P80192). Conditions: MLK1, 0.5µM. As to the method: as §1, §2, §3, §4
Test [3] addresses MST4 (Homo sapiens, UniProt Q9P289). Conditions: MST4, 0.5µM. As to the method: as §1, §2, §3, §4
In test [4] the target is T2, ERK8 (Homo sapiens, UniProt Q8TD08).
T2 sequence (Q8TD08 1-544): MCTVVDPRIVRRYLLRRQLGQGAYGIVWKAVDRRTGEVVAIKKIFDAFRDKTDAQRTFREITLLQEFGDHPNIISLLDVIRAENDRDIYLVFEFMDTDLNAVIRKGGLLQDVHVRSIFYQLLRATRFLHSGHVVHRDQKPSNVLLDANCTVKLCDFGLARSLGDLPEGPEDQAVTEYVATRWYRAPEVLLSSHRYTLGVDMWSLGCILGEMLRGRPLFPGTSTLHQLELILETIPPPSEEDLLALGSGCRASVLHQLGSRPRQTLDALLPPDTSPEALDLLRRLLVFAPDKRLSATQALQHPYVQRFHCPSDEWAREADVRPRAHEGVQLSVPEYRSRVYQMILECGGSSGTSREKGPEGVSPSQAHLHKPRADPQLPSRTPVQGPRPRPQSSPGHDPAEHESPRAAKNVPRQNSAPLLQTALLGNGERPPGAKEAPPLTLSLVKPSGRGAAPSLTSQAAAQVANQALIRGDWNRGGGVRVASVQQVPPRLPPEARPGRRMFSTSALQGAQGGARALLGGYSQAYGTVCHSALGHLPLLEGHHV
The note with it: ERK8, 0.5µM. The procedure:
as §1, §2, §3, §4

For test [5], the target named is IRR (Homo sapiens, UniProt P14616). The procedure: as §1, §2, §3, §4
Chain of IRR (P14616 27-1297): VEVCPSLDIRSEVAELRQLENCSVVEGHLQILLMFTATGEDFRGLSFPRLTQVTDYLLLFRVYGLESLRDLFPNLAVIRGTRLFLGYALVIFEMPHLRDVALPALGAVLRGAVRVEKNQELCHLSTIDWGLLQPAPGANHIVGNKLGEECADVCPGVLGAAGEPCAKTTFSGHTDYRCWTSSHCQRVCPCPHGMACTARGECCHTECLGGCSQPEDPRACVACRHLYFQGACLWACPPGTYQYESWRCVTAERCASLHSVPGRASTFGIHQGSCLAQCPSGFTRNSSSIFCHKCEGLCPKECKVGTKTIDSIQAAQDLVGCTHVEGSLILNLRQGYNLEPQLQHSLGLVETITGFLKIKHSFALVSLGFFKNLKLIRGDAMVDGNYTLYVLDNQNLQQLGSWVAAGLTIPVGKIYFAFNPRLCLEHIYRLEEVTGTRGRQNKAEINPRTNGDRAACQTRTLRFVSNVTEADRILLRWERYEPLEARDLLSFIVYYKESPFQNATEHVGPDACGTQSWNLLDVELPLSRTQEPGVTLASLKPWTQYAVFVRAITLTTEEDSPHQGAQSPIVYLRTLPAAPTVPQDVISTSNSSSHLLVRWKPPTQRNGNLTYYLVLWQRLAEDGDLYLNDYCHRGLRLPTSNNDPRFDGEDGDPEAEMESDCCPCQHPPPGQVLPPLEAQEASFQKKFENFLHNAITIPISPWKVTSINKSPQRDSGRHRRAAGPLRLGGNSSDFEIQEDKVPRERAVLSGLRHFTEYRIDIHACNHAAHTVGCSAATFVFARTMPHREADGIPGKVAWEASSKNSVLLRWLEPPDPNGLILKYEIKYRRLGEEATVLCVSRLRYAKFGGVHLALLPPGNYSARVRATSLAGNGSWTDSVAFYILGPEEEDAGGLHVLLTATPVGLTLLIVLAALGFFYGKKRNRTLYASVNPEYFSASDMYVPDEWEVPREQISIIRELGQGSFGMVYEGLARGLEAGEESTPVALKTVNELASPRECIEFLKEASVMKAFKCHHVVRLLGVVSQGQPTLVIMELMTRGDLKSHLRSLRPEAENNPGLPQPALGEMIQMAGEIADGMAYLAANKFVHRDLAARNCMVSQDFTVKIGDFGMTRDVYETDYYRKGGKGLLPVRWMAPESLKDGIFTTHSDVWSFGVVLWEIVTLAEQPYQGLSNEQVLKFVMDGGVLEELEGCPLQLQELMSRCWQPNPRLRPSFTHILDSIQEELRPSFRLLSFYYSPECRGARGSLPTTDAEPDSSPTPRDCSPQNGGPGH
The mark [6] stands for this setting: 4hr RT preincubation, read-out: %Remaining activity at 0.5µM NU6300 - 4hr RT preincubation.
The mark [7] stands for this setting: usual format, read-out: %Remaining activity at 0.5µM NU6300 - Usual assay format.

Like-named read-outs stand apart in the source and are kept apart here.

Chain of MST4 (Q9P289 whole entry): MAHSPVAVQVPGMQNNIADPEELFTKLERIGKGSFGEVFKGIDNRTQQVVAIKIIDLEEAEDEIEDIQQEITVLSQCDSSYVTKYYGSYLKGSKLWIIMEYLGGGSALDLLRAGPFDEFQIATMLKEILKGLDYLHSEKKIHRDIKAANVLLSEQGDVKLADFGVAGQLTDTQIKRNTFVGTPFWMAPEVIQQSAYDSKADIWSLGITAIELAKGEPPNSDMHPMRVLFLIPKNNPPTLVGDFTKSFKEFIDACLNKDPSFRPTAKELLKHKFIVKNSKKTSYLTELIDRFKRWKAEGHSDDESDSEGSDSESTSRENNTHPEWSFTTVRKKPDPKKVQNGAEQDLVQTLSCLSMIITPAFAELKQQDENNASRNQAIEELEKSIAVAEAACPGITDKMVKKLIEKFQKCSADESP
Chain of MLK1 (P80192 whole entry): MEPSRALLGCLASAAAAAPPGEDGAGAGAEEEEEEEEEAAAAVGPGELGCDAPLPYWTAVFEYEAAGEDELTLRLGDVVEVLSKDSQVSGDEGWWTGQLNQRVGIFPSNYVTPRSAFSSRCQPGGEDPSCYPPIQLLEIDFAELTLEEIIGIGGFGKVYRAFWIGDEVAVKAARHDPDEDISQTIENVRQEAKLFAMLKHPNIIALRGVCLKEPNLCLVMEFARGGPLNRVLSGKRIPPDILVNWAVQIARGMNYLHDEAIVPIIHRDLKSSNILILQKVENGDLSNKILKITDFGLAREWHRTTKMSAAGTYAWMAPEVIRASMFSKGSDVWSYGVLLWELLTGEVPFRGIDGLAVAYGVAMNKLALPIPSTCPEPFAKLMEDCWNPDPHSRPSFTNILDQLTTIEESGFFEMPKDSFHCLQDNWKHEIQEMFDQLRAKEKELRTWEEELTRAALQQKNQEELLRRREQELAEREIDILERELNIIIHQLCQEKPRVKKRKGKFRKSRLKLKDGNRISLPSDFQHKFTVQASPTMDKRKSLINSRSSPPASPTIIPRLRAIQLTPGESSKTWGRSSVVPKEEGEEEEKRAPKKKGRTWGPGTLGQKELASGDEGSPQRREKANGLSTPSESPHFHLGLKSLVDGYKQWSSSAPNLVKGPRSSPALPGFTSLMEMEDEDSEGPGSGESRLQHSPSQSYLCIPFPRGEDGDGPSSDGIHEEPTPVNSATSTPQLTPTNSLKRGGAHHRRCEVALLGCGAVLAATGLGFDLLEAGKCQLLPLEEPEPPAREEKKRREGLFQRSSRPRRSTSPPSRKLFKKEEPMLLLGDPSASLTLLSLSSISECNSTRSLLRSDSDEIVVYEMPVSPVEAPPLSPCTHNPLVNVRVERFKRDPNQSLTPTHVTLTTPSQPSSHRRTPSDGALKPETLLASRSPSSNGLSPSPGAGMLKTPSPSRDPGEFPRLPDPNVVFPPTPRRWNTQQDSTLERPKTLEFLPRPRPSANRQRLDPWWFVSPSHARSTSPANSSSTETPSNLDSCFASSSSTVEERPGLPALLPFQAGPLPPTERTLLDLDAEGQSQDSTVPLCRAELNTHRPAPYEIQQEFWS

Take `C=CS(=O)(=O)c1ccc(Nc2nc(OCC3CCCCC3)c3nc[nH]c3n2)cc1` [NU6300, 6-(cyclohexylmethoxy)-N-(4-(vinylsulfonyl)phenyl)-9H-purin-2-amine]: the remaining activity at 0.5 µM in test [1] (setting [6]) turned out to be 42%; in test [1] (setting [7]), 72%; in test [2] (setting [6]), 29%; in test [2] (setting [7]) it was 4%; in test [3] (setting [6]) it was 94%; in test [3] (setting [7]), 74%. In addition, the remaining activity at 0.5 µM was found to be 68% in test [4] (setting [6]), 20% in test [4] (setting [7]), 45% in test [5] (setting [6]) and 73% in test [5] (setting [7]).
